≈ marks a conversion by molar mass, not a printed value. Read-outs that look alike come from different tables or passages of the source.
Columns and labels:
[1] = test system: alcohol-preferring rats (P rats); experiment: 2-hour ethanol intake by adult male P rats after IP carbamathione; type: in vivo
Protocol: The efficacy of carbamathione in reducing ethanol intake of rats was assessed. Adult male alcohol-preferring rats (P rats) and high alcohol-drinking-1 (HAD1) rats (˜75 days of age at the start) were used in this study. These rats underwent an 8-week acquisition/acclimation period of concurrent free-choice access to 15% and 30% ethanol. Animals were initiated with 24-hour access, which was titrated down to 2 hours per day for 5 days (Monday-Friday)/week access. Ethanol access began at the beginning of the dark cycle (10:00 h) in a room maintained on a reverse dark-light cycle (10:00 h to 22:00 h lights out).
After the acquisition period, the animals underwent three weeks of testing. Four doses were tested: 0, 100, 200, and 400 mg/kg/day. Sterile isotonic (0.9% normal) saline with 0.25% Tween® 80 was used as the vehicle for all doses. Injection solutions were prepared approximately 1 hour prior to each administration.
The carbamathione solution was maintained at −20° C. until mixing the solutions each day. Adding the carboxyl-associated compound helped dissolve the carbamathione solid, which was pulverized by mortar and pestle with 50 μl Tween® 80, resulting in a pH of 3.5. […] Doses were calculated at 3 ml/kg to allow for injection volume of 1.5 ml per 500 g rat. […]
Data were analyzed by Dose, by Test Day, and 2-way mixed ANOVAs on each rat line, followed by Dunnett t-test planned comparisons.

C57BL/6J mice = experiment: Voluntary ethanol intake in chronic intermittent ethanol (CIE) exposed and air-exposed (CTL) mice, limited access drinking; type: in vivo; details: for weekly average ethanol intake vs vehicle: nondependent (CTL) mice; for ethanol intake as percent change from vehicle group: Test cycles 5 and 7
Protocol: Following the established protocol, adult male C57BL/6J mice (N=96) were trained to drink ethanol in a limited access (2 hour/day) free-choice (15% v/v ethanol vs. water) drinking procedure. After four weeks, stable baseline level of intake was established, and mice were separated into two groups. One group of mice (CIE group) was exposed to chronic intermittent ethanol (CIE) vapor exposure in inhalation chambers (16 hour/days x 4 days). The remaining mice (CTL group) were treated similarly but exposed to air in inhalation chambers. After a 72 hour forced abstinence period, all mice resumed ethanol drinking in the same limited access paradigm for a 5-day test period. This pattern of weekly CIE (or air) exposure cycles with intervening weekly test drinking cycles was repeated for seven cycles following procedures previously published (Becker and Lopez, 2004; Griffin et al., 2009; Lopez and Becker, 2005).
All mice received intraperitoneal (IP) administration of saline 30 min prior to the start of daily drinking sessions during baseline and the early test cycles to acclimate the animals to the handling procedure. After the fourth ethanol intake test cycle, mice were further divided into carbamathione dose treatment conditions (N=10-12/group).
After Test 4, CIE and CTL mice were separated in dose groups for Test 5 (N=11-12/group), with the groups equated for intake during Test 4. Mice received intraperitoneal (IP) injections of carbamathione (100, 200 or 400 mg/kg) or vehicle (0.25% carboxymethyl cellulose, CMC in water) 30 min before drinking. The carbamathione IP injections were administered as a suspension. Ethanol intake during Test 5 was averaged for the week and analyzed by ANOVA, with Group (CTL, CIE) and carbamathione dose (0, 100, 200, 400 mg/kg) as between-subject factors. ANOVA indicated a significant main effect of Group [F(1,78)=53.33; p<0.0001], reflecting a higher level of ethanol intake in CIE mice compared to CTL mice (* in FIG. 4).
The efficacy of carbamathione in reducing ethanol intake in mice was next compared to the efficacy of disulfiram, an FDA approved drug used in the treatment of chronic alcoholism. The mice were exposed to a sixth cycle of CIE (or air) and evaluated for intake with the same procedure used in the previous test cycle, except that disulfiram was included as a comparator drug. Mice that received vehicle or 400 mg/kg carbamathione continued with this treatment schedule. Mice that received 100 or 200 mg/kg carbamathione were combined and randomly redistributed to receive 75 or 100 mg/kg disulfiram during the first two days and these doses were increased to 125 and 150 mg/kg disulfiram, respectively for the last three days of Test 6. Disulfiram doses were prepared with the same vehicle used for carbamathione (i.e., 0.25% CMC). Separate analyses were conducted to evaluate the effect of carbamathione and disulfiram treatment. Data presented in FIG. 5 show the weekly average intake for CIE and CTL mice that received vehicle or carbamathione. […] Data for mice that received vehicle, 75, or 100 mg/kg of disulfiram were averaged over the first two days of the week. […]
Mice were evaluated again for voluntary ethanol intake after a seventh and final CIE or air exposure cycle. During the five days of Test 7, mice that received vehicle injections from the start of the study continued to receive vehicle injections. Mice that received carbamathione and disulfiram in Test cycles 5 and 6 received vehicle injections in Test 7 to evaluate any long-lasting effect of previous treatment (drug washout evaluation). Finally, mice that received 400 mg/kg carbamathione continued treatment with a higher dose of carbamathione (600 mg/kg). Analysis of the groups that received vehicle injections during Test 7 was performed with Group (CIE, CTL) and previous treatment (vehicle, low, or high disulfiram dose) as main factors. This analysis indicated a significant main effect of Group [F(1,59)=25.36; p<0.0001]. […] (data not shown). […]

[2] = Solubility of free carbamathione in buffer by portion-wise addition of solid; type: physicochemical; details: thermodynamic from solid, read-out: Solubility TNX1001
Protocol: The solubility of free carbamathione was determined to be between 20 and 30 mg/mL, as 100 mg of free carbamathione dissolved completely in 5 mL of buffer, but a saturated solution was formed when a subsequent 50 mg aliquot of solid was added to the solution.
The solubility of free carbamathione was determined to be between 10 and 20 mg/mL, as 50 mg of free carbamathione dissolved completely in 5 mL of buffer, but a saturated solution was formed when a subsequent 50 mg aliquot of solid was added to the solution.

ALDH2 = details: Faiman et al., 2013; cited from earlier work

solubility ([2]; aqueous buffer, pH 4.5, 25° C.): 10 to 20 mg/mL (≈ 24.6 to 49.2 mM)
solubility ([2]; aqueous buffer, pH 6.8, 25° C.): 20 to 30 mg/mL (≈ 49.2 to 73.8 mM)
solubility ([2]; simulated gastric fluid, pH 1.2, 25° C.): 25 to 33 mg/mL (≈ 61.5 to 81.2 mM)
Structure (SMILES): CCN(CC)C(=O)SCC(NC(=O)CCC(N)C(=O)O)C(=O)NCC(=O)O (centres unmarked) [carbamathione, S—(N,N-diethylcarbamoyl)glutathione]
effect on 2-hour ethanol intake ([1]; IP 100, 200, 400 mg/kg, saline with 0.25% Tween 80 vehicle): modest positive effect
2 h ethanol intake, Dunnett's t-test for main effect of dose ([1]; highest dose (400 mg/kg/day IP)): significant effect
reduction in ethanol intake, CTL mice compared to CIE-exposed mice (C57BL/6J mice; 200, 400 and 600 mg/kg, percent change from vehicle): significantly larger reduction in ethanol intake
weekly average ethanol intake vs vehicle and 100 mg/kg (C57BL/6J mice; Test 5, 400 mg/kg IP in 0.25% CMC, 30 min before drinking, CIE and CTL mice together): significantly lower ethanol intake
weekly average ethanol intake vs vehicle (C57BL/6J mice; Test 5, 200 mg/kg IP): significantly reduced ethanol intake
weekly average ethanol intake vs vehicle (C57BL/6J mice; Test 5, 400 mg/kg IP): significantly reduced ethanol intake
weekly average ethanol intake vs vehicle, pair-wise comparison (C57BL/6J mice; Test 6, 400 mg/kg IP, p=0.07): trend for lower ethanol intake
ethanol intake vs vehicle (C57BL/6J mice; Test 7, 600 mg/kg IP, CIE and CTL groups, 600 mg/kg): significantly reduce ethanol intake
ethanol intake as percent change from vehicle group (C57BL/6J mice; CIE mice, 600 mg/kg (only the highest dose)): significant decrease in ethanol intake
ethanol intake as percent change from vehicle group (C57BL/6J mice; CTL mice, 200, 400 and 600 mg/kg): significant reduction in voluntary ethanol intake
inhibitory activity of ALDH2 (ALDH2): devoid of inhibitory activity

Reference: patent US20220153780A1, “SALT FORMS OF S-(N, N-DIETHYLCARBAMOYL)GLUTATHIONE” (Tonix Pharma Holdings Limited, priority 2019, published 2022)
